From patent US20130280260A1, “OSTEOCLASTOGENESIS INHIBITOR CONTAINING ANTI-VDAC ANTIBODY” (TOKYO WOMEN'S MEDICAL UNIVERSITY, priority 2010, published 2013) come the findings set out here.

One test deals with human osteoclasts. In words: Inhibition of osteoclast differentiation and osteoclastogenesis in human osteoclastogenesis culture system (monocytes with M-CSF and RANKL). The settings on record: 0.2 μg/mL or 2 μg/mL, in comparison with the control. Format: cell-based. The procedure: • (1) Preparation of Monoclonal Antibodies against Cell Membrane Proteins of Osteoclasts • (i) Peripheral blood monocytes from five healthy subjects were cultured in flasks in the presence of M-CSF and RANKL for approximately 2 weeks and differentiated into osteoclasts. After trypsin and EDTA were added to the human osteoclasts, the resulting cells were cultured at 37° C. for 15 minutes, and then detached with a cell scraper and harvested. This operation was repeated to collect cell membranes of human mature osteoclasts. Membrane proteins were prepared from the human mature osteoclasts using a RIPA buffer. • (ii) Using the obtained membrane proteins as an antigen, mice were immunized. Spleen cells of the mice thus immunized were fused with myeloma cells, and four types of hybridomas were obtained. Screening was performed by ELISA using a plate on which the osteoclast membrane proteins were immobilized. The wells of the positive result were further examined for a reactivity to human osteoclasts and a nonspecific reactivity to monocytes. After cloning, 5D1/2B9/2H10 and 5D1/3F3/2C8 were obtained as final lines. • (iii) From these final lines, monoclonal antibodies were obtained. • (2) Purification of Proteins Bound to Antibody Column
• (1) Into the human osteoclastogenesis culture system obtained in step 1. […]

Test [1] concerns monoclonal antibody 20B12 (anti-VDAC1). The test can be described thus: Epitope analysis by ELISA using synthetic peptides covering VDAC1. Format: binding, mouse. To be noted: for OD450-595: 20B12 at 5 μg/mL, average of two wells; for reaction between peptide and antibody (ELISA): text summary of Tables 2, 3. Here is the method:
In order to examine an epitope for the anti-VDCA monoclonal antibody (VDAC1(20B12), SANTA CRUZ Biotechnology, Inc., sc-58649, mouse monoclonal IgG2b, 100 μg/ml), an analysis was conducted by ELISA using synthetic peptides (Table 1). As the synthetic peptides, 28 types of peptides were prepared so as to cover the VDAC1 completely.
The synthetic peptides were fixed to plates by an avidin-biotin method as follows.
The synthetic peptides (325 nmol/peptide) were each dissolved in 250 μL of DMSO, and then diluted 6400-fold with Wash Buffer (PBS containing 0.05% Tween-20). After a streptavidin-coated plate was washed with Wash Buffer (350 μL, 3 times), 100 μL of the peptide thus diluted was added into the plate, which was left standing in cold storage overnight.
ELISA was performed using the plate to which the peptide was fixed in 7.1, and antibodies bound to the peptide were detected. The detection procedure was as follows. Two wells were used for one condition, and the average was taken. • (1) The liquid in wells was taken out. After washing with Wash Buffer (350 μL, three times), 200 μL of Blocking Buffer (SynBlock) was added to the wells, which were shaken at 37° C. for 1 hour. • (2) The liquid in the wells was taken out, and 50 μL of the monoclonal antibody 20B12 (diluted to 5 μg/mL with Blocking Buffer) was added to the wells, which were shaken at 37° C. for 1 hour. • (3) The liquid in the wells was taken out. After washing with Wash Buffer, 50 μL of HRP-labeled Goat anti Mouse IgG (Fc) (the original solution had been diluted 25000-fold with Wash Buffer) was added to the wells, which were shaken at 37° C. for 1 hour. • (4) The liquid in the wells was taken out, and the plate was washed. Then, 60 μL of a staining solution was added to the plate, which was incubated at 37° C. for 30 minutes. After 60 μL of a stop solution was added thereto to stop the color reaction, the absorbance at 450 nm (Reference 595 nm) was measured with a plate reader.

In the case of `NCCCC(O)(P(=O)(O)O)P(=O)(O)O` [alendronate sodium hydrate], the “osteoclastogenesis (total area of osteoclasts)” value in the test on human osteoclasts is on record as “significantly inhibited”.
Consider “ACFSAKVNNS SLIGLGYTQT (ACFSAKVNNSSLIGLGYTQT) [Peptide 24, synthetic peptide covering part of VDAC1]”, for which the values for the OD450-595 in test [1] (first time) and in test [1] (second time) were 1.284 and 1.336, respectively. For the same compound, in test [1], the “reaction between peptide and antibody (ELISA)” value is listed as “significant”.
For “AGYQMNFETA KSRVTQSNFA (AGYQMNFETAKSRVTQSNFA) [Peptide 16, synthetic peptide covering part of VDAC1]”, the OD450-595 in test [1] (first time) turned out to be 0.388; in test [1] (second time) it was 0.444.
Taken in the same sequence, the figures for “ALLDGKNVNA GGHKLGLGLE (ALLDGKNVNAGGHKLGLGLE) [Peptide 27, synthetic peptide covering part of VDAC1]” were 0.290 and 0.371.
Taken in the same sequence, the figures for “ALVLGYEGWL AGYQMNFETA (ALVLGYEGWLAGYQMNFETA) [Peptide 15, synthetic peptide covering part of VDAC1]” were 0.337 and 0.373.
Taken in the same sequence, the figures for “EHINLGCDMD FDIAGPSIRG (EHINLGCDMDFDIAGPSIRG) [Peptide 13, synthetic peptide covering part of VDAC1]” were 0.369 and 0.322.
On to “FDIAGPSIRG ALVLGYEGWL (FDIAGPSIRGALVLGYEGWL) [Peptide 14, synthetic peptide covering part of VDAC1]”, for which the OD450-595 amounted to 0.316 in test [1] (first time) and 0.385 in test [1] (second time).
For “FTEKWNTDNT LGTEITVEDQ (FTEKWNTDNTLGTEITVEDQ) [Peptide 8, synthetic peptide covering part of VDAC1]” the same measures were 0.341 and 0.411.
Taken in the same sequence, the figures for “FTSSGSANTE TTKVTGSLET (FTSSGSANTETTKVTGSLET) [Peptide 5, synthetic peptide covering part of VDAC1]” were 0.311 and 0.351.
For “GGHKLGLGLE FQA (GGHKLGLGLEFQA) [Peptide 28, synthetic peptide covering part of VDAC1]” the same measures were 0.418 and 0.455.
As for “GGSIYQKVNK KLETAVNLAW (GGSIYQKVNKKLETAVNLAW) [Peptide 20, synthetic peptide covering part of VDAC1]”, the OD450-595 in test [1] (first time) was found to be 0.362; in test [1] (second time) it was 0.398.
As to “GKSARDVFTK GYGFGLIKLD (GKSARDVFTKGYGFGLIKLD) [Peptide 2, synthetic peptide covering part of VDAC1]”, the OD450-595 in test [1] (first time) was 0.363; in test [1] (second time) it was 0.421.
Taken in the same sequence, the figures for “GYGFGLIKLD LKTKSENGLE (GYGFGLIKLDLKTKSENGLE) [Peptide 3, synthetic peptide covering part of VDAC1]” were 0.280 and 0.354.
Taken in the same sequence, the figures for “HTNVNDGTEF GGSIYQKVNK (HTNVNDGTEFGGSIYQKVNK) [Peptide 19, synthetic peptide covering part of VDAC1]” were 0.300 and 0.312.
As to “IAAKYQIDPD ACFSAKVNNS (IAAKYQIDPDACFSAKVNNS) [Peptide 23, synthetic peptide covering part of VDAC1]”, the OD450-595 stood at 0.276 in test [1] (first time) and 0.357 in test [1] (second time).
For “KLETAVNLAW TAGNSNTRFG (KLETAVNLAWTAGNSNTRFG) [Peptide 21, synthetic peptide covering part of VDAC1]” the same measures were 0.235 and 0.270.
Taken in the same sequence, the figures for “KSRVTQSNFA VGYKTDEFQL (KSRVTQSNFAVGYKTDEFQL) [Peptide 17, synthetic peptide covering part of VDAC1]” were 0.285 and 0.308.
Taken in the same sequence, the figures for “KYRWTEYGLT FTEKWNTDNT (KYRWTEYGLTFTEKWNTDNT) [Peptide 7, synthetic peptide covering part of VDAC1]” were 0.321 and 0.371.
Turning to “LARGLKLTFD SSFSPNTGKK (LARGLKLTFDSSFSPNTGKK) [Peptide 10, synthetic peptide covering part of VDAC1]”, the OD450-595 in test [1] (first time) was 0.360; in test [1] (second time), 0.351.
For “LGTEITVEDQ LARGLKLTFD (LGTEITVEDQLARGLKLTFD) [Peptide 9, synthetic peptide covering part of VDAC1]” the same measures were 0.286 and 0.338.
Regarding “LKPGIKLTLS ALLDGKNVNA (LKPGIKLTLSALLDGKNVNA) [Peptide 26, synthetic peptide covering part of VDAC1]”, the values for the OD450-595 in test [1] (first time) and in test [1] (second time) were 0.268 and 0.367, respectively.
Taken in the same sequence, the figures for “LKTKSENGLE FTSSGSANTE (LKTKSENGLEFTSSGSANTE) [Peptide 4, synthetic peptide covering part of VDAC1]” were 0.312 and 0.423.
Turning to “MAVPPTYADL GKSARDVFTK (MAVPPTYADLGKSARDVFTK) [Peptide 1, synthetic peptide covering part of VDAC1]”, the OD450-595 in test [1] (first time) is given as 0.448; in test [1] (second time), 0.443.
Taken in the same sequence, the figures for “NAKIKTGYKR EHINLGCDMD (NAKIKTGYKREHINLGCDMD) [Peptide 12, synthetic peptide covering part of VDAC1]” were 0.345 and 0.375.
Turning to “SLIGLGYTQT LKPGIKLTLS (SLIGLGYTQTLKPGIKLTLS) [Peptide 25, synthetic peptide covering part of VDAC1]”, the OD450-595 in test [1] (first time) came to 0.590; in test [1] (second time) it was 0.679. The “reaction between peptide and antibody (ELISA)” value in test [1] is given as “weak reaction”.
For “SSFSPNTGKK NAKIKTGYKR (SSFSPNTGKKNAKIKTGYKR) [Peptide 11, synthetic peptide covering part of VDAC1]”, the results for the OD450-595 in test [1] (first time) and in test [1] (second time) were 0.319 and 0.361, respectively.
For “TAGNSNTRFG IAAKYQIDPD (TAGNSNTRFGIAAKYQIDPD) [Peptide 22, synthetic peptide covering part of VDAC1]” the same measures were 0.318 and 0.319.
Taken in the same sequence, the figures for “TTKVTGSLET KYRWTEYGLT (TTKVTGSLETKYRWTEYGLT) [Peptide 6, synthetic peptide covering part of VDAC1]” were 0.358 and 0.363.
Taken in the same sequence, the figures for “VGYKTDEFQL HTNVNDGTEF (VGYKTDEFQLHTNVNDGTEF) [Peptide 18, synthetic peptide covering part of VDAC1]” were 0.275 and 0.305.
